Where “and” joins values, the source holds several entries; their conditions need not be identical. Equal entries are not always repeated.

For assay [1], the species on record is Homo sapiens. Nature of the assay: Selectivity for human CA7 over human CA1.
The species entered for assay [2] is Homo sapiens. Kind of assay: Selectivity for human CA7 over human CA2.
In the next assay the target is Carbonic anhydrase 7 (Homo sapiens, UniProt P43166).
Assay [3] in a line: Selectivity for human CA7 over murine CA13.

Sequence of Carbonic anhydrase 7 (P43166 whole entry): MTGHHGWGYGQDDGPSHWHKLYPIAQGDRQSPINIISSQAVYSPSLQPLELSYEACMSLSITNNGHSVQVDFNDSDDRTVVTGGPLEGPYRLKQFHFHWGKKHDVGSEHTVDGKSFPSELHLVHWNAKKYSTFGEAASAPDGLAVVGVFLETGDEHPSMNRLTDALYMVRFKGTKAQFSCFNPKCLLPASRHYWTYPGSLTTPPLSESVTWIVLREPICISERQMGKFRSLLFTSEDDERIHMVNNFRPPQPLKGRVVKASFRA
Description for Carbonic anhydrase 7: Inhibition of human recombinant CA7

One may read the Ki as a dissociation constant, usually derived from enzyme kinetics or from competition with a known ligand. Read a low Ki as higher affinity. Consider `OB(O)c1ccccc1` [PHENYLBORONIC ACID], for which the Selectivity ratio came out at 7060 in the assay filed under Homo sapiens [1], 2780 in the assay listed under Homo sapiens [2] and 343 in assay [3]. This compound had a Ki at Carbonic anhydrase 7 of 8.3 µM.
As to `O=S(O)O` [SULFUROUS ACID], the affinity on Carbonic anhydrase 7 corresponds to a Ki of 7300 µM.
`Cl` [HYDROCHLORIC ACID] returned a Ki on Carbonic anhydrase 7 of 1840 µM.
In the case of `N#CO` [CYANATE], the affinity on Carbonic anhydrase 7, expressed as Ki, was 15200 µM.
At Carbonic anhydrase 7, `I` [IODIDE] returned a Ki of 250 µM.
Compound `O=S(=O)(O)O` [SULFURIC ACID] gave a Ki on Carbonic anhydrase 7 of 1380 µM.
Still for that read-out and setting: under `O=[N+]([O-])O` [NITRIC ACID] stands 190 µM; under `N#CS` [THIOCYANIC ACID], 170 µM; under `S` [HYDROGEN SULFIDE], 1240 µM.
Compound `Br` [BROMIDE] returned a Ki on Carbonic anhydrase 7 of 1060 µM.
Same read-out and setting: under `O=NO` [NITROUS ACID] stands 1780 µM; under `O=C(O)O` [BICARBONATE], 270 µM and 160 µM.
The same measure, in the same setting: under `NS(=O)(=O)O` [SULFAMATE] stands 9.5 µM; under `F` [FLUORIDE ION], 1240 µM.

These data come from ChEMBL document CHEMBL1148502, “Carbonic anhydrase inhibitors: inhibition of the cytosolic human isozyme VII with anions” (Bioorg Med Chem Lett, 2006).
